Data: patent US6984646B2, “Imidazopyridinones as p38 map kinase inhibitors” (Bayer Healhcare AG, priority 2001, dated 2006)

What follows are molecules tested against p38 map kinase (Homo sapiens, UniProt Q16539) (assay: P38 map kinase assay (SPA)). Details: SPA [33-P] assay, biotinylated myelin basic protein substrate 2.5 μM, 10 μM ATP, 90 min 30° C.
Format: biochemical
Text: The assay makes use of the serine/threonine protein kinase SPA [33-P]+assay kit from Amersham Pharmacia Biotech. The assay is a homogeneous technique using SPA technology for the quantification of serine threonine kinase activity.
It is based on the p38 map kinase catalysed transfer of the γ-phosphate group of the [γ-^33P] ATP to the substrate, biotinylated myelin basic protein (MBP). The resulting [^33P]-labelled biotinylated product is trapped on a PVT SPA bead containing scintillant which has been surface coated with streptavidin.
The beads are allowed to settle to eliminate high background, and therefore only ^33P labelled product attached to the SPA bead is detected.
The assay is carried out in the presence and absence of test compounds to determine their effect on p38 map kinase activity.
A Test Protocol is as Follows:
• 1. SPA assay kit (Amersham). Components: • Assay buffer (store frozen) • Stop solution (store frozen) • Streptavidin coated SPA beads—reconstitute with 5 mls of PBS. (50 mg/ml). (Store in fridge) • 2. p38 map kinase enzyme SCRD (500 μg/ml)−aliquoted in 1.5 mls. • dilute 1:10 to 50 μg/ml • 1 plate: −110 μl (stock 500 μg/ml)+[…] PBS. • 3. Assay reagent: • for 1 plate: −504 μl Assay buffer (500 Mm MOPS pH7.2, 10 μM ATP, • 50 mM MgCl2, 25 μM biotinylated myelin basic protein (MBP)). • 2513.4 μl Water • 1.1 μl 33-p-ATP ([…]) (on activity date/adjust for activity date) • 4.534 μl×10^-2M ATP in water • 4. Stop solution: • for 1 plate: −265.92 μl streptavidin coated beads (50 mg/ml) • 1651.68 μl stop buffer (500 μM ATP, 50 mM EDTA 1% Triton X-100) • 7084.32 μl PBS. • 1. Add 10 μcompound Dilutions (5× final conc) Test wells. • 2. Add 10 μl 12.5% DMSO to control/blank wells. • 3. Add 10 μl enzyme (50 μg/ml)−final conc 500 ng/well • 4. Add 10 μPBS to blank wells. • 5. Add 30 μL of assay reagent to each well. (final conc 10 μM ATP, 2.5 μM substrate) • 6. Mix well on plate shaker • 7. Incubate 90 min (30° C.) • 8. Add 75 μl of stop solution to each well (final conc 55 μM ATP) • 9. Spin plate: −3 min/1600 rpm/20° C. (alternatively leave to settle overnight) • 10. Read in Microbeta, Protocol SPA paralux 3.

Sequence of p38 map kinase (Q16539 whole entry): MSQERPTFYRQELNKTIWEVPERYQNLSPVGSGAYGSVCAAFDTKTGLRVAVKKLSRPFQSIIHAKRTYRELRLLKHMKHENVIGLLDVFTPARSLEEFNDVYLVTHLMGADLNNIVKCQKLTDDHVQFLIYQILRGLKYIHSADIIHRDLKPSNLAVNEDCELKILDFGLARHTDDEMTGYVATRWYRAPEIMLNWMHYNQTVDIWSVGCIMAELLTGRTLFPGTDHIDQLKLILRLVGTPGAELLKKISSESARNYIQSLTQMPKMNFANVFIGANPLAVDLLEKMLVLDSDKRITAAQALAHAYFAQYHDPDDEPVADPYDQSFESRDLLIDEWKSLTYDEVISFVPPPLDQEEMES

In order of rising IC50:
1. O=C(c1ccc(F)cc1F)c1ccc(=O)n2c3c([nH]c12)CCCC3 [Example 38, 4-(2,4-Difluorobenzoyl)-6,7,8,9-tetrahydropyrido[1,2-a]benzimidazol-1(51)-one]  96 nM
2. O=C(c1ccccc1)c1ccc(=O)n2c3c([nH]c12)CCCC3 [Example 5, 4-Benzoyl-6,7,8,9-tetrahydropyrido[1,2-a]benzimidazol-1(5H)-one]  111 nM
3. Cc1[nH]c2c(C(=O)c3ccccc3F)ccc(=O)n2c1C [Example 3, 8-(2-Fluorbenzoyl)-2,3-dimethylimidazo[1,2-a]pyridin-5(1H)-one]  235 nM
4. Cc1[nH]c2c(C(=O)c3ccc(F)cc3)ccc(=O)n2c1C [Example 2, 8-(4-Fluorobenzoyl)-2,3-dimethylimidazo[1,2-a]pyridin-5(1H)-one]  329 nM
5. O=C(c1ccccc1)c1ccc(=O)n2c1[nH]c1ccccc12 [Example 1, 4-Benzoylpyrido[1,2-a]benzimidazol-1(5H)-one]  518 nM
